Read-outs that look alike come from different tables or passages of the source.
Assays:
Assay type in all cases: cell-based
[1] = tested on: Staphylococcus aureus MRSA; assay: Minimum inhibitory concentration (MIC) in vitro, agar dilution method; settings: for MIC: read-out: MIC
Text: (§1) Hydrates Samples: • The 1/2 hydrates prepared according to Example 2; • Content (purity % wt): 99.0%; • The 1/12 hydrates prepared according to Example 253; • Content (purity % wt): 98.9%; • The 2/7 hydrates prepared according to Example 106; • Content (purity % wt): 98.8%; • The 2/5 hydrates prepared according to Example 162; • Content (purity % wt): 99.0%; • The 3/4 hydrates prepared according to Example 337; • Content (purity % wt): 98.8%; • Preparation: dissolved in DMSO, and further diluted with sterile distilled water to desired concentration. • The hydrates samples were supplied by Sichuan Beilike Biotechnology LTD.
(§2) Anhydrous Sample: • The anhydrous compounds prepared according to Example 1. • Content (purity % wt): 98.6%; • Preparation: dissolved in DMSO, and further diluted with sterile distilled water to desired concentration; • The anhydrous sample was supplied by Sichuan Beilike Biotechnology LTD.
(§3) Control Samples • Vancomycin: provided by Sichuan Beilike Biotechnology LTD, purchased from Eli Lilly Japan K.K. • Lot No.: WM16151 (production date: Apr. 10, 2007, expiration date: Apr. 9, 2009). • Specification: 500 mg/bottle; solubility (physicochemical properties): soluble in water. • Linezolid (LZ): provided by Sichuan Beilike Biotechnology LTD.
(§4) Bacteria Strains • Clinically isolated strains: clinically isolated bacterial pathogens collected in Sichuan and Beijing areas from March 2007 to May 2008. • Species include: Staphylococcus aureus MRSA, Staphylococcus aureus MSSA, S. epidermidis MRSE, S. epidermidis MSSE, E. feacalis, and E. feacium, a total of 51 strains. • Quality control strains: Staphylococcus aureus […] strain kept in Sichuan Industrial Institute of Antibiotics, purchased from the medical testing center of the Ministry of Health, China.
(§5) Experimental Method: • Measurement of the minimum inhibitory concentration (MIC) in vitro: • The minimum inhibitory concentration (MIC) of each test sample against test strains was measured by using the agar dilution method recommended by the U.S. National Committee for Clinical Laboratory Standards (CLSI/NCCIs).
(§6) Based on the CLSI/NCCL's testing standard with respect to vancomycin and linezolid (see Table 6), the minimum inhibitory concentration (MIC) values of every strain were reported, and the MIC50 (the concentration that inhibits 50% of the different strains of bacteria), MIC90 (the concentration that inhibits 90% of the different strains of bacteria), and MICrange (the range of the MIC value of the tested strains) were observed.

[2] = tested on: Staphylococcus aureus MSSA; assay: as above; settings: for MIC: read-out: MIC
Text: as §1, §2, §3, §4, §5, §6

S. epidermidis MSSE = assay: as above; settings: for MIC: read-out: MIC
Text: as §1, §2, §3, §4, §5, §6

E. feacalis = assay: as above
Text: as §1, §2, §3, §4, §5, §6

S. epidermidis MRSE = assay: as above; settings: for MIC: read-out: MIC
Text: as §1, §2, §3, §4, §5, §6

E. feacium = assay: as above
Text: as §1, §2, §3, §4, §5, §6

Staphylococcus aureus = assay: Minimum inhibitory concentration (MIC) in vitro, agar dilution method, quality control strain; settings: Staphylococcus aureus, ATCC27853, strain S. AT C C25923 (Table 7 No. 1); read-out: MIC
Text: as §1, §2, §3, §4, §5, §6

CC(=O)NC[C@H]1CN(c2ccc(N3CCOCC3)c(F)c2)C(=O)O1 [Linezolid, reference compound]
1 µg/mL: MIC ([1]; Staphylococcus aureus, MRSA, strain S. MRSA 29 (Table 7 No. 15)) | MIC ([1]; Staphylococcus aureus, MRSA, strain S. MRSA 101 (Table 7 No. 14)) | MIC ([1]; Staphylococcus aureus, MRSA, strain S. MRSA B143 (Table 7 No. 19)) | MIC ([1]; Staphylococcus aureus, MRSA, strain S. MRSA B617 (Table 7 No. 18)) | MIC ([2]; Staphylococcus aureus, MSSA, strain S. MSSA 466 (Table 7 No. 8)) | MIC50 (S. epidermidis MSSE; Staphylococcus epidermidis, S. ep MSSE (10 strains), clinically isolated, read-out: MIC50) | MIC (S. epidermidis MSSE; Staphylococcus epidermidis, strain S. ep MSSE113 (Table 7 No. 24)) | MIC (S. epidermidis MSSE; Staphylococcus epidermidis, strain S. ep MSSE119 (Table 7 No. 27)) | MIC (S. epidermidis MSSE; Staphylococcus epidermidis, strain S. ep MSSE142 (Table 7 No. 26)) | MIC (S. epidermidis MSSE; Staphylococcus epidermidis, strain S. ep MSSE153 (Table 8 No. 1)) | MIC50 (E. feacalis) | MIC (E. feacalis; strain Efa 54 (Table 8 No. 20)) | MIC (E. feacalis; strain Efa 116 (Table 8 No. 16)) | MIC (E. feacalis; strain Efa 907 (Table 8 No. 19)) | MIC (E. feacalis; strain Efa 3006 (Table 8 No. 18)) | MIC50 (S. epidermidis MRSE; Staphylococcus epidermidis, MRSE, S. ep MRSE (10 strains), clinically isolated, read-out: MIC50) | MIC (S. epidermidis MRSE; Staphylococcus epidermidis, MRSE, strain S. ep MRSE4 (Table 8 No. 9)) | MIC (S. epidermidis MRSE; Staphylococcus epidermidis, MRSE, strain S. ep MRSE20 (Table 8 No. 6)) | MIC (S. epidermidis MRSE; Staphylococcus epidermidis, MRSE, strain S. ep MRSE105 (Table 8 No. 11)) | MIC (S. epidermidis MRSE; Staphylococcus epidermidis, MRSE, strain S. ep MRSE140 (Table 8 No. 14)) | MIC (S. epidermidis MRSE; Staphylococcus epidermidis, MRSE, strain S. ep MRSE142 (Table 8 No. 12)) | MIC (S. epidermidis MRSE; Staphylococcus epidermidis, MRSE, strain S. ep MRSE210 (Table 8 No. 15)) | MIC (S. epidermidis MRSE; Staphylococcus epidermidis, MRSE, strain S. ep MRSE211 (Table 8 No. 8)) | MIC (E. feacium; strain Efm 98 (Table 8 No. 21)) | MIC (E. feacium; strain Efm N3 (Table 8 No. 23))
1 to 4 µg/mL: MICrange (E. feacium; E. feacium (5 strains), clinically isolated)
2 µg/mL: MIC50 ([1]; Staphylococcus aureus, MRSA, S. MRSA (10 strains), clinically isolated, read-out: MIC50) | MIC90 ([1]; Staphylococcus aureus, MRSA, S. MRSA (10 strains), clinically isolated, read-out: MIC90) | MIC ([1]; Staphylococcus aureus, MRSA, strain S. MRSA 201 (Table 7 No. 13)) | MIC ([1]; Staphylococcus aureus, MRSA, strain S. MRSA B27 (Table 7 No. 21)) | MIC ([1]; Staphylococcus aureus, MRSA, strain S. MRSA B105 (Table 7 No. 17)) | MIC ([1]; Staphylococcus aureus, MRSA, strain S. MRSA B151 (Table 7 No. 20)) | MIC ([1]; Staphylococcus aureus, MRSA, strain S. MRSA B164 (Table 7 No. 16)) | MIC ([1]; Staphylococcus aureus, MRSA, strain S. MRSA B199 (Table 7 No. 22)) | MIC50 ([2]; Staphylococcus aureus, MSSA, S. MSSA (11 strains), clinically isolated, read-out: MIC50) | MIC90 ([2]; Staphylococcus aureus, MSSA, S. MSSA (11 strains), clinically isolated, read-out: MIC90) | MIC ([2]; Staphylococcus aureus, MSSA, strain S. MSSA 123 (Table 7 No. 3)) | MIC ([2]; Staphylococcus aureus, MSSA, strain S. MSSA 187 (Table 7 No. 7)) | MIC ([2]; Staphylococcus aureus, MSSA, strain S. MSSA 195 (Table 7 No. 6)) | MIC ([2]; Staphylococcus aureus, MSSA, strain S. MSSA 195 (Table 7 No. 12)) | MIC ([2]; Staphylococcus aureus, MSSA, strain S. MSSA 201 (Table 7 No. 11)) | MIC ([2]; Staphylococcus aureus, MSSA, strain S. MSSA 232 (Table 7 No. 2)) | MIC ([2]; Staphylococcus aureus, MSSA, strain S. MSSA 275 (Table 7 No. 10)) | MIC ([2]; Staphylococcus aureus, MSSA, strain S. MSSA 519 (Table 7 No. 9)) | MIC ([2]; Staphylococcus aureus, MSSA, strain S. MSSA 520 (Table 7 No. 4)) | MIC ([2]; Staphylococcus aureus, MSSA, strain S. MSSA 580 (Table 7 No. 5)) | MIC90 (S. epidermidis MSSE; Staphylococcus epidermidis, S. ep MSSE (10 strains), clinically isolated, read-out: MIC90) | MIC (S. epidermidis MSSE; Staphylococcus epidermidis, strain S. ep MSSE88 (Table 8 No. 5)) | MIC (S. epidermidis MSSE; Staphylococcus epidermidis, strain S. ep MSSE118 (Table 8 No. 2)) | MIC (S. epidermidis MSSE; Staphylococcus epidermidis, strain S. ep MSSE137 (Table 8 No. 4)) | MIC (S. epidermidis MSSE; Staphylococcus epidermidis, strain S. ep MSSE140 (Table 8 No. 3)) | MIC90 (E. feacalis) | MIC (E. feacalis; strain Efa 33748 (Table 8 No. 17)) | MIC90 (S. epidermidis MRSE; Staphylococcus epidermidis, MRSE, S. ep MRSE (10 strains), clinically isolated, read-out: MIC90) | MIC (S. epidermidis MRSE; Staphylococcus epidermidis, MRSE, strain S. ep MRSE87 (Table 8 No. 13)) | MIC (S. epidermidis MRSE; Staphylococcus epidermidis, MRSE, strain S. ep MRSE90 (Table 8 No. 10)) | MIC50 (E. feacium) | MIC (E. feacium; strain Efm 171 (Table 8 No. 25)) | MIC (E. feacium; strain Efm 197 (Table 8 No. 22)) | MIC (Staphylococcus aureus)
1 to 2 µg/mL: MICrange ([1]; S. MRSA (10 strains), clinically isolated) | MICrange ([2]; S. MSSA (11 strains), clinically isolated) | MICrange (E. feacalis; E. feacalis (5 strains), clinically isolated)
0.5 to 2 µg/mL: MICrange (S. epidermidis MSSE; S. ep MSSE (10 strains), clinically isolated) | MICrange (S. epidermidis MRSE; S. ep MRSE (10 strains), clinically isolated)
0.5 µg/mL: MIC (S. epidermidis MSSE; Staphylococcus epidermidis, strain S. ep MSSE87 (Table 7 No. 23)) | MIC (S. epidermidis MSSE; Staphylococcus epidermidis, strain S. ep MSSE116 (Table 7 No. 25)) | MIC (S. epidermidis MRSE; Staphylococcus epidermidis, MRSE, strain S. ep MRSE101 (Table 8 No. 7))
4 µg/mL: MIC90 (E. feacium) | MIC (E. feacium; strain Efm N4 (Table 8 No. 24))

Source: patent US8916567B2, “Certain crystalline hydrates, pharmaceutical compositions thereof and methods for preparation and use thereof” (Universal Technology Alliance, Inc., priority 2009, dated 2014)
